Measured values as given in ChEMBL document CHEMBL1150202, “Modified Taxols, 6. Preparation of Water-Soluble Prodrugs of Taxol” (J Nat Prod, 1991).
In brackets after ≈: the same amount, converted by molar mass.

Legend:
[1] = Cytotoxicity against human HCT/VP35 cells; type: functional, cell-based
P388 [2] = assay: In vivo cytotoxicity against mouse P388 cells at 5 mg/kg, ip, scheduled Q01D for 5 days relative to control; type: functional
P388 [3] = assay: In vivo cytotoxicity against mouse P388 cells at 40 mg/kg, ip, scheduled Q01D for 5 days relative to control; type: functional
B16 = assay: Cytotoxicity against mouse B16 cells grown in PRIM medium; type: functional, cell-based
P388 [4] = assay: In vivo cytotoxicity against mouse P388 cells at 10 mg/kg, ip, scheduled Q01D for 5 days relative to control; type: functional
A549 = assay: Cytotoxicity against human A549 cells; type: functional, cell-based
P388 [5] = assay: In vivo cytotoxicity against mouse P388 cells at 20 mg/kg, ip, scheduled Q01D for 5 days relative to control; type: functional
P388 [6] = assay: In vivo cytotoxicity against mouse P388 cells at 2.5 mg/kg, ip, scheduled Q01D for 5 days relative to control; type: functional
HCT-116 = assay: Cytotoxicity against human HCT116 cells; type: functional, cell-based
[7] = Cytotoxicity against human A549/VP cells; type: functional, cell-based
P388 [8] = assay: In vivo cytotoxicity against mouse P388 cells at 4 mg/kg, ip, scheduled Q01D for 5 days relative to control; type: functional
P388 [9] = assay: In vivo cytotoxicity against mouse P388 cells at 32 mg/kg, ip, scheduled Q01D for 5 days relative to control; type: functional
P388 [10] = assay: In vivo cytotoxicity against mouse P388 cells at 8 mg/kg, ip, scheduled Q01D for 5 days relative to control; type: functional
P388 [11] = assay: In vivo cytotoxicity against mouse P388 cells at 64 mg/kg, ip, scheduled Q01D for 5 days relative to control; type: functional
P388 [12] = assay: In vivo cytotoxicity against mouse P388 cells at 16 mg/kg, ip, scheduled Q01D for 5 days relative to control; type: functional
P388 [13] = assay: In vivo cytotoxicity against mouse P388 cells at 12 mg/kg, ip, scheduled Q01D for 5 days relative to control; type: functional
P388 [14] = assay: In vivo cytotoxicity against mouse P388 cells at 24 mg/kg, ip, scheduled Q01D for 5 days relative to control; type: functional
P388 [15] = assay: In vivo cytotoxicity against mouse P388 cells at 3 mg/kg, ip, scheduled Q01D for 5 days relative to control; type: functional
P388 [16] = assay: In vivo cytotoxicity against mouse P388 cells at 48 mg/kg, ip, scheduled Q01D for 5 days relative to control; type: functional
P388 [17] = assay: In vivo cytotoxicity against mouse P388 cells at 6 mg/kg, ip, scheduled Q01D for 5 days relative to control; type: functional

Question: With `CC(=O)O[C@H]1C(=O)[C@@]2(C)[C@H]([C@H](OC(=O)c3ccccc3)[C@]3(O)C[C@H](OC(=O)[C@H](OC(=O)CCS(=O)(=O)[O-])[C@@H](NC(=O)c4ccccc4)c4ccccc4)C(C)=C1C3(C)C)[C@]1(OC(C)=O)CO[C@@H]1C[C@@H]2O.[Na+]` as the molecule, how does the IC50 [1] read?
Answer: 0.05 µg/mL

Question: And the T/C (P388 [2])?
Answer: 123%

Question: And the T/C (P388 [3])?
Answer: 136%

Question: What about the IC50 (B16) of the same molecule?
Answer: 0.02 µg/mL

Question: What about the T/C (P388 [4]) of the same molecule?
Answer: 127%

Question: And the IC50 (A549)?
Answer: 0.4 µg/mL

Question: And the T/C (P388 [5])?
Answer: 136%

Question: And the T/C (P388 [6])?
Answer: 109%

Question: And the IC50 (HCT-116)?
Answer: < 0.02 µg/mL

Question: What about the IC50 [7] of the same molecule?
Answer: 0.19 µg/mL

Question: Which results are given for `CC(=O)O[C@H]1C(=O)[C@@]2(C)[C@H]([C@H](OC(=O)c3ccccc3)[C@]3(O)C[C@H](OC(=O)[C@H](OC(=O)CCC(=O)NCCS(=O)(=O)[O-])[C@@H](NC(=O)c4ccccc4)c4ccccc4)C(C)=C1C3(C)C)[C@]1(OC(C)=O)CO[C@@H]1C[C@@H]2O.[Na+]`?
Answer: IC50 [1]: 0.03 µg/mL; T/C (P388 [8]): 109%; T/C (P388 [9]): 136%; T/C (P388 [10]): 114%; IC50 (B16): < 0.02 µg/mL; IC50 (A549): 0.09 µg/mL; IC50 (HCT-116): < 0.02 µg/mL; T/C (P388 [11]): 132%; IC50 [7]: < 0.02 µg/mL; T/C (P388 [12]): 127%

Question: For `CC(=O)O[C@H]1C(=O)[C@@]2(C)[C@H]([C@H](OC(=O)c3ccccc3)[C@]3(O)C[C@H](OC(=O)[C@H](OC(=O)CCC(=O)NCCCS(=O)(=O)[O-])[C@@H](NC(=O)c4ccccc4)c4ccccc4)C(C)=C1C3(C)C)[C@]1(OC(C)=O)CO[C@@H]1C[C@@H]2O.[Na+]`, which IC50 [1] is on record?
Answer: 0.04 µg/mL

Question: What about the T/C (P388 [13]) of the same molecule?
Answer: 118%

Question: And the IC50 (B16)?
Answer: < 0.02 µg/mL

Question: And the IC50 (A549)?
Answer: 0.19 µg/mL

Question: And the T/C (P388 [14])?
Answer: 123%

Question: What about the IC50 (HCT-116) of the same molecule?
Answer: < 0.02 µg/mL

Question: What about the T/C (P388 [15]) of the same molecule?
Answer: 109%

Question: What about the T/C (P388 [16]) of the same molecule?
Answer: 127%

Question: And the T/C (P388 [17])?
Answer: 114%

Question: And the IC50 [7]?
Answer: 0.11 µg/mL

Question: For `CC(=O)O[C@H]1C(=O)[C@@]2(C)[C@H]([C@H](OC(=O)c3ccccc3)[C@]3(O)C[C@H](OC(=O)[C@H](O)[C@@H](NC(=O)c4ccccc4)c4ccccc4)C(C)=C1C3(C)C)[C@]1(OC(C)=O)CO[C@@H]1C[C@@H]2O` [PACLITAXEL], which IC50 [1] is on record?
Answer: < 0.02 µg/mL

Question: What about the T/C (P388 [8]) of the same molecule?
Answer: 150%

Question: What about the T/C (P388 [10]) of the same molecule?
Answer: 132%

Question: What about the IC50 (B16) of the same molecule?
Answer: < 0.02 µg/mL

Question: And the IC50 (A549)?
Answer: 4.79 µg/mL (≈ 5.61 µM)

Question: And the IC50 (HCT-116)?
Answer: < 0.02 µg/mL

Question: And the IC50 [7]?
Answer: < 0.02 µg/mL

Question: And the T/C (P388 [12])?
Answer: 155%
